Drawing on patent publication US11254668B2, “Pyrazolo[1,5-A]pyrazin-4-yl and related derivatives” (Pfizer Inc., priority 2017, dated 2022), this text covers IC50 for 20 molecules.

Holding throughout (format): biochemical
Assay [1] addresses TYK2 (Homo sapiens (Human), UniProt P29597). Put plainly: JAK Caliper Enzyme Assay at 1 mM ATP, TYK2. Put shortly:
(§1)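 Mobility-shift microfluidic read-out: substrate and phosphopeptide peaks separated, % conversion = product/(product+substrate). Reaction used recombinant human kinase domain, synthetic peptide, 1 mM ATP, RT incubation to 20–30% turnover, quenched with EDTA. Percent effect versus DMSO and positive controls, plotted against concentration.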

The target in assay [2] is JAK1 (Homo sapiens (Human), UniProt P23458). Put plainly: JAK Caliper Enzyme Assay at 1 mM ATP, JAK1. The method, boiled down:
(§2)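 IC50 (nM) derived from percent conversion of fluorescently labelled peptide, measured by Caliper LabChip mobility-shift separation after EDTA stop. Each JAK family kinase domain (human, recombinant) run at 1 mM ATP and room temperature, conditions set to 20-30% product; DMSO wells define uninhibited baseline.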

In assay [3] the target is JAK3 (Homo sapiens (Human), UniProt P52333). Put plainly: JAK Caliper Enzyme Assay at 1 mM ATP, JAK3. The method, boiled down: as §2
Sequence of JAK3 (P52333 822-1111): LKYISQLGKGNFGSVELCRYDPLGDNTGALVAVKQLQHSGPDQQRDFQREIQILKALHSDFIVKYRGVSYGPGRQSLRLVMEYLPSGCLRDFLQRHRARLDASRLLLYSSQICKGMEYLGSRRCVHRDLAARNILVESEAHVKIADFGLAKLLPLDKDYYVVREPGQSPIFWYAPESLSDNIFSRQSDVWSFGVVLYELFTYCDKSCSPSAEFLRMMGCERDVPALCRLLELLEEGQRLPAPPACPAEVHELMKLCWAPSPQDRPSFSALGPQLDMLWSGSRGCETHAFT
Assay [4] has as its target JAK2 (Homo sapiens (Human), UniProt O60674). As to the kind of experiment: JAK Caliper Enzyme Assay at 1 mM ATP, JAK2. Put shortly: as §1

Molecules are shown by their SMILES. Bounds are passed on as bounds.

Sequence of JAK1 (P23458 875-1153): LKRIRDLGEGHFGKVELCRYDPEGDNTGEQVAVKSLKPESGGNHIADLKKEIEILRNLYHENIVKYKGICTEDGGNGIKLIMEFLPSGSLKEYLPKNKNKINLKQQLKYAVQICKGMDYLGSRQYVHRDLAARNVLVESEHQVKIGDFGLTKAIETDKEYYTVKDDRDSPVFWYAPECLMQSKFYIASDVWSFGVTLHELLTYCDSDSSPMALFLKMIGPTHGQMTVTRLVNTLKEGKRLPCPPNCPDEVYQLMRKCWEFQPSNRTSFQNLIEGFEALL
Sequence of JAK2 (O60674 849-1124): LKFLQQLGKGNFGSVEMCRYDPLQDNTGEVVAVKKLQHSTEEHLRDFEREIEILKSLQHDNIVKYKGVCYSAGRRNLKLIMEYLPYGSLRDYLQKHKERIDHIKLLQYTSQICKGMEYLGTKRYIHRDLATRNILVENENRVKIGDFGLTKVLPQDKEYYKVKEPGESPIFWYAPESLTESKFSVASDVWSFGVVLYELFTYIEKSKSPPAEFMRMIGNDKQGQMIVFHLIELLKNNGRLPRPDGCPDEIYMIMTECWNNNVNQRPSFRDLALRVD
Sequence of TYK2 (P29597 897-1176): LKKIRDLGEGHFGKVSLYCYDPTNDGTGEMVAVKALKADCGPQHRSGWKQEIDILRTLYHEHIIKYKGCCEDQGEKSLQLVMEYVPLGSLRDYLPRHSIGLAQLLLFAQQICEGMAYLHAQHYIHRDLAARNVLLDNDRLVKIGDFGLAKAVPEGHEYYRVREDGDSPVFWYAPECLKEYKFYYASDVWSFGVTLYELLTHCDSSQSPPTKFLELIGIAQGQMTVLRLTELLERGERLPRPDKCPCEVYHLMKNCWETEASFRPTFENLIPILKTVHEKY

With `CO[C@H]1C[C@](CC#N)(n2ccc(-c3nc(-c4cnn(CCO)c4)cc4ncccc34)n2)C1` [Example 129, [trans-1-(3-{7-[1-(2-hydroxyethyl)-1H-pyrazol-4-yl]-1,6-naphthyridin-5-yl}-1H-pyrazol-1-yl)-3-methoxycyclobutyl]acetonitrile], the IC50 is 133 nM in assay [1], 5920 nM in assay [2], greater than 10000 nM in assay [3] and 1230 nM in assay [4].

As to `CS(=O)(=O)N1CC(CC#N)(n2ccc(-c3nc(-c4cnn(C(CO)CCl)c4)cc4ncccc34)n2)C1` (centres unmarked) [Example 130, [3-(3-{7-[1-(1-chloro-3-hydroxypropan-2-yl)-1H-pyrazol-4-yl]-1,6-naphthyridin-5-yl}-1H-pyrazol-1-yl)-1-(methylsulfonyl)azetidin-3-yl]acetonitrile], the IC50 in assay [1] is 32 nM; in assay [2], 232 nM; in assay [3], 9520 nM; in assay [4], 63 nM.

As for `CS(=O)(=O)N1CC(CC#N)(n2ccc(-c3nc(-c4cnn(CC5COC5)c4)cc4ncccc34)n2)C1` [Example 132, [1-(methylsulfonyl)-3-(3-{7-[1-(oxetan-3-ylmethyl)-1H-pyrazol-4-yl]-1,6-naphthyridin-5-yl}-1H-pyrazol-1-yl)azetidin-3-yl]acetonitrile], the IC50 stood at 22 nM in assay [1], 619 nM in assay [2], 9120 nM in assay [3] and 70 nM in assay [4].

Regarding `Cn1ncc(-c2cc3ncccc3c(-c3ccn(C4(CC#N)CN(S(C)(=O)=O)C4)n3)n2)c1C(N)=O` [Example 134, 4-(5-{1-[3-(cyanomethyl)-1-(methylsulfonyl)azetidin-3-yl]-1H-pyrazol-3-yl}-1,6-naphthyridin-7-yl)-1-methyl-1H-pyrazole-5-carboxamide], the IC50 is 685 nM in assay [1], greater than 10000 nM in assay [2], greater than 10000 nM in assay [3] and greater than 10000 nM in assay [4].

`Cn1cc(-c2cc3ncccc3c(-c3ccn([C@]4(CC#N)C[C@@H](C#N)C4)n3)n2)c(CO)n1` [Example 135, trans-3-(cyanomethyl)-3-(3-{7-[3-(hydroxymethyl)-1-methyl-1H-pyrazol-4-yl]-1,6-naphthyridin-5-yl}-1H-pyrazol-1-yl)cyclobutanecarbonitrile]: the IC50 amounted to 20 nM in assay [1], 489 nM in assay [2], 2020 nM in assay [3] and 34 nM in assay [4].

As for `Cn1ncc(-c2cc3ncccc3c(-c3ccn([C@]4(CC#N)C[C@@H](C#N)C4)n3)n2)c1CO` [Example 136, trans-3-(cyanomethyl)-3-(3-{7-[5-(hydroxymethyl)-1-methyl-1H-pyrazol-4-yl]-1,6-naphthyridin-5-yl}-1H-pyrazol-1-yl)cyclobutanecarbonitrile], the IC50 in assay [1] is 44 nM; in assay [2] it was 618 nM; in assay [3], greater than 10000 nM; in assay [4], 260 nM.

On to `Cn1ncc(-c2cc3ncccc3c(-c3ccn(C4(CC#N)CN(S(C)(=O)=O)C4)n3)n2)c1N` [Example 137, [3-{3-[7-(5-amino-1-methyl-1H-pyrazol-4-yl)-1,6-naphthyridin-5-yl]-1H-pyrazol-1-yl}-1-(methylsulfonyl)azetidin-3-yl]acetonitrile], for which the IC50 in assay [1] was 52 nM; in assay [2] it was 586 nM; in assay [3], greater than 10000 nM; in assay [4], 207 nM.

Turning to `Cn1cc(-c2cc3ncccc3c(-c3ccn(C4(CC#N)CN(S(C)(=O)=O)C4)n3)n2)c(N)n1` [Example 138, [3-{3-[7-(3-amino-1-methyl-1H-pyrazol-4-yl)-1,6-naphthyridin-5-yl]-1H-pyrazol-1-yl}-1-(methylsulfonyl)azetidin-3-yl]acetonitrile], the IC50 came to 8 nM in assay [1], 382 nM in assay [2], 3190 nM in assay [3] and 21 nM in assay [4].

Take `Cn1cc(-c2cc3ncccc3c(-c3ccn([C@]4(CC#N)C[C@@H](C#N)C4)n3)n2)c(N)n1` [Example 139, trans-3-{3-[7-(3-amino-1-methyl-1H-pyrazol-4-yl)-1,6-naphthyridin-5-yl]-1H-pyrazol-1-yl}-3-(cyanomethyl)cyclobutanecarbonitrile]: the IC50 was 10 nM in assay [1], 243 nM in assay [2], 3720 nM in assay [3] and 20 nM in assay [4].

Turning to `Cn1cc(-c2cc3ncccc3c(-c3ccn([C@]4(CC#N)C[C@H](C#N)C4)n3)n2)c(N)n1` [Example 140, cis-3-{3-[7-(3-amino-1-methyl-1H-pyrazol-4-yl)-1,6-naphthyridin-5-yl]-1H-pyrazol-1-yl}-3-(cyanomethyl)cyclobutanecarbonitrile], the IC50 is 8 nM in assay [1], 48 nM in assay [2], 474 nM in assay [3] and 10 nM in assay [4].

Take `Cn1ncc(-c2cc3ncccc3c(-c3ccn(C4(CC#N)CC(C#N)C4)n3)n2)c1N` (stereo not drawn) [Example 141, trans-3-{3-[7-(5-amino-1-methyl-1H-pyrazol-4-yl)-1,6-naphthyridin-5-yl]-1H-pyrazol-1-yl}-3-(cyanomethyl)cyclobutanecarbonitrile]: the IC50 in assay [1] is 49 nM; in assay [2] it was 355 nM; in assay [3] it was greater than 10000 nM; in assay [4] it was 127 nM.

For the molecule `Cn1ncc(-c2cc3ncccc3c(-c3ccn([C@]4(CC#N)C[C@H](C#N)C4)n3)n2)c1N` [Example 142, cis-3-{3-[7-(5-amino-1-methyl-1H-pyrazol-4-yl)-1,6-naphthyridin-5-yl]-1H-pyrazol-1-yl}-3-(cyanomethyl)cyclobutanecarbonitrile], the IC50 is 19 nM in assay [1], 53 nM in assay [2], 2160 nM in assay [3] and 30 nM in assay [4].

Regarding `Cc1ccn(-c2cc3ncccc3c(-c3ccn(C4(CC#N)CN(CC(F)(F)F)C4)n3)n2)n1` [Example 143, [3-{3-[7-(3-methyl-1H-pyrazol-1-yl)-1,6-naphthyridin-5-yl]-1H-pyrazol-1-yl}-1-(2,2,2-trifluoroethyl)azetidin-3-yl]acetonitrile], the IC50 in assay [1] was 767 nM; in assay [2] it was greater than 10000 nM; in assay [3], greater than 10000 nM; in assay [4] it was 6670 nM.

Take `N#CCC1(n2ccc(-c3nc(-c4cn(C5COC5)cn4)cc4ncccc34)n2)CN(CC(F)(F)F)C1` [Example 144, [3-(3-{7-[1-(oxetan-3-yl)-1H-imidazol-4-yl]-1,6-naphthyridin-5-yl}-1H-pyrazol-1-yl)-1-(2,2,2-trifluoroethyl)azetidin-3-yl]acetonitrile]: the IC50 was 223 nM in assay [1], greater than 10000 nM in assay [2], greater than 10000 nM in assay [3] and 1370 nM in assay [4].

Regarding `CS(=O)(=O)N1CC(CC#N)(n2ccc(-c3nc(-c4cnco4)cc4ncccc34)n2)C1` [Example 145, [1-(methylsulfonyl)-3-{3-[7-(1,3-oxazol-5-yl)-1,6-naphthyridin-5-yl]-1H-pyrazol-1-yl}azetidin-3-yl]acetonitrile], the IC50 in assay [1] was 172 nM; in assay [2] it was 3290 nM; in assay [3], greater than 10000 nM; in assay [4], 1790 nM.

On to `N#CC[C@]1(n2ccc(-c3nc(-c4cc(CO)no4)cc4ncccc34)n2)C[C@@H](C#N)C1` [Example 146, cis-3-(cyanomethyl)-3-(3-{7-[3-(hydroxymethyl)-1,2-oxazol-5-yl]-1,6-naphthyridin-5-yl}-1H-pyrazol-1-yl)cyclobutanecarbonitrile], for which the IC50 in assay [1] was 26 nM; in assay [2], 400 nM; in assay [3], greater than 10000 nM; in assay [4] it was 99 nM.

For `Cc1onc(N)c1-c1cc2ncccc2c(-c2ccn(C3(CC#N)CN(S(C)(=O)=O)C3)n2)n1` [Example 147, [3-{3-[7-(3-amino-5-methyl-1,2-oxazol-4-yl)-1,6-naphthyridin-5-yl]-1H-pyrazol-1-yl}-1-(methylsulfonyl)azetidin-3-yl]acetonitrile], the IC50 in assay [1] was 7550 nM; in assay [2], greater than 10000 nM; in assay [3], greater than 10000 nM; in assay [4], greater than 10000 nM.

For the molecule `Cc1nc(-c2cc3ncccc3c(-c3ccn(C4(CC#N)CN(CC(F)(F)F)C4)n3)n2)c[nH]1` [Example 150, [3-{3-[7-(2-methyl-1H-imidazol-4-yl)-1,6-naphthyridin-5-yl]-1H-pyrazol-1-yl}-1-(2,2,2-trifluoroethyl)azetidin-3-yl]acetonitrile], the concentration for half-maximal inhibition (IC50) in assay [1] was 290 nM; in assay [2], 9830 nM; in assay [3] it was greater than 10000 nM; in assay [4] it was 3420 nM.

In the case of `Cc1nc(-c2cc3ncccc3c(-c3ccn(C4(CC#N)CN(CC(F)(F)F)C4)n3)n2)cn1C` [Example 151, [3-{3-[7-(1,2-dimethyl-1H-imidazol-4-yl)-1,6-naphthyridin-5-yl]-1H-pyrazol-1-yl}-1-(2,2,2-trifluoroethyl)azetidin-3-yl]acetonitrile], the IC50 in assay [1] is 309 nM; in assay [2], greater than 10000 nM; in assay [3], greater than 10000 nM; in assay [4] it was 1660 nM.

For `Cc1ncc(-c2cc3ncccc3c(-c3ccn(C4(CC#N)CN(CC(F)(F)F)C4)n3)n2)n1C` [Example 152, [3-{3-[7-(1,2-dimethyl-1H-imidazol-5-yl)-1,6-naphthyridin-5-yl]-1H-pyrazol-1-yl}-1-(2,2,2-trifluoroethyl)azetidin-3-yl]acetonitrile], the IC50 in assay [1] was 4140 nM; in assay [2], greater than 10000 nM; in assay [3] it was greater than 10000 nM; in assay [4], greater than 10000 nM.
